Results published in US20120308567A1, “USE OF TYROSINE KINASE INHIBITORS FOR TREATMENT OF PROLACTINOMA” (CEDARS-SINAI MEDICAL CENTER, priority 2010, published 2012).
Entries after “also recorded” stand apart in the source; their conditions may differ.

What was measured:
[1] = system: GH3 cells stably expressing HER2CA; test: Cell proliferation assay (cell counts); type: cell-based, rat; settings: for cell number: HER2CA GH3 cells, 0.1-10 μM, 24 h treatment
Method: pcDNA3 and HER2CA cells were plated at a density of 2×10^4 per well in 12-well plates or 4×10^3 cells per well in 96-well plates with growth medium. For 12-well plates, cells were counted by hemocytometer at the indicated times. For 96-well plates, premixed WST-1 cell proliferation reagent (Roche Molecular Biochemicals) was added (1:10) at the indicated times and incubated for 4 h at 37° C. in a humidified atmosphere maintained at 5% CO2, and absorbance was then measured at 450 nm. WST-1 is a colorimetric assay for quantification of cell proliferation and cell viability, based on the cleavage of the tetrazolium salt by mitochondrial dehydrogenases in viable cells.

[2] = system: GH3 cells stably expressing HER2CA; test: RIA of PRL and GH secretion in culture medium of GH3 stable transfectants; type: cell-based, rat; settings: HER2CA GH3 cells, 1 μM
Method: μM) for the indicated times, and Realtime PCR analysis performed. C. GH and PRL secretion in the culture medium determined by RIA. Hormone secretion levels were normalized for cell numbers, Values are mean±SEM. *p<0.05, **p<0.01.
GH3 rat lacto-somatotroph tumor cells secreting PRL and GH were purchased from the American Type Culture Collection. HER2CA cells were generated by transfection with pcDNA3-HER2CA (V654E) purchased from Addgene (Addgene plasmid 16259). Stable colonies were selected in the presence of 500 μg/ml G418 (Invitrogen). A vector control cell line pcDNA3 was simultaneously established by transfecting pcDNA3 that lacked inserted cDNA. After selection and propagation of stable transfectants, cells were cultured in DMEM/F12 medium containing 15% horse serum, 2.5% FBS, penicillin/streptomycin, and 500 μg/m G418. After synchronization by serum starvation (medium containing 0.2% bovine serum albumin for ˜24 h), cells with treatment agents was grown in fresh serum-depleted medium (0.2% bovine serum albumin), and samples collected at the indicated times.
RIAs for rat GH and PRL were performed in duplicate, using reagents provided by the National Hormone and Pituitary Program, National Institute of Diabetes and Digestive and Kidney Diseases (Harbor-UCLA Medical Center, Torrance, Calif., USA). Iodination of GH and PRL (5 μg) with iodine-125 (500 μCi) (PerkinElmer life & Analytical Sciences, Boston, Mass., USA) mixed with 0.1 mg Iodo-Gen (Pierce, Rockford, Ill.) was performed using 10-ml columns prepared by G-75 Sephadex (Sigma Chemical Co.). Low interspecies cross-reactivity of the GH and PRL assays were previously shown (8).

[3] = system: GH3 cells stably expressing HER2CA; test: Western blotting of cleaved caspase-3 (apoptosis); settings: 0.1-10 μM, 24 hr
[4] = system: estrogen induced pituitary lactotroph tumor; test: Estrogen induced pituitary lactotroph tumor in Fischer-344 rats; type: in vivo, rat; settings: F344 rats
Method: 17β-estradiol-filled capsules or empty capsule were inoculated subcutaneously in F344 rats (4-5 weeks of age) for one month. A. Western blotting analysis was performed using collected pituitary or pituitary tumor. Next 17β-estradiol-filled capsules were inoculated subcutaneously in F344 rats (4-5 weeks of age) for 2 months. After capsule excision, oral vehicle or lapatinib was administered for 2 weeks. […] C. Tumor weights were measured after euthanasia. D. Serum PRL and GH levels were measured by RIA.
Next, 4-5 wk ovariectomized female Fishcer-344 rats (Harlan Sprague Dawley, Inc.) were s.c. implanted with an 17β-estradiol-filled […] brand capsule (Dow Corning Corp., Medical Grade Tubing Special; length, 3 cm; od, 0.125 in.; id, 0.062 in.) under isoflurane inhalational anesthesia. Two months thereafter, when serum PRL levels reached 3000 ng/ml, 17β-estradiol-filled capsules were extracted, and animals were treated with lapatinib (100 mg/kg) or vehicle (0.5% methylcellose, 0.5% tween80/PBS; 100 μl) via oral gavage twice a day for 2 weeks. 500 μl blood was collected for hormone assessment by retro-orbital bleeding under isoflurane inhalational anesthesia. On the last treatment day (day 14), rats were euthanized within 3 h of drug administration. Cardiac blood was collected and pituitary tumors excised and weighed. Fragments of each tumor were fixed in formalin and embedded in paraffin, preserved in RNA later solution, or frozen in liquid nitrogen.
Next, the inventors tested Fischer-344 rats treated with 17β-estradiol as a model for pituitary prolactinomas (24). […] The inventors then extracted the capsule, and initiated oral lapatinib or vehicle treatment for a subsequent 2 weeks.

[5] = system: EGF-induced HER2 and MAPK autophosphorylation; test: Western blotting of EGF-induced ErbB signaling and intracellular PRL in HER2CA GH3 cells; type: cell-based, rat
Method: Proteins were separated on 4 to 12% NuPAGE Bis-Tris gels and electro-transferred for 3 h to polyvinylidene difluoride membranes (Invitrogen). Membranes were blocked for 1 h in 5% nonfat dry milk or 5% bovine serum albumin in TBS-T buffer, and incubated overnight with primary antibody. The following primary antibodies were used: anti-pErk1/2, anti-Erk1/2, anti-Akt, anti-pEGFR (Tyr1068), anti-EGFR, anti-pHER3/ErbB3 (Tyr1289), and anti-Cleaved Caspase-3 from Cell Signaling Technology, anti-pNeu (Tyr1248), anti-Neu (C-18), anti-HER3/ErbB3, anti-PRL, and anti-GAPDH from Santa Cruz Biotechnology, and anti-pAkt (Ser473) from Abcam. After washing with TBS-T, membranes were incubated with peroxidase-conjugated secondary antibody for 1 h (5% nonfat dry milk or 5% bovine serum albumin in TBS-T buffer).

[6] = 100 mg/kg oral gavage twice a day for 2 weeks

Compound	cell number [1]	PRL secretion, time course of suppression ([2]; 24 and 48 h)	induction of cleaved caspase-3 [3]	serum GH levels [4, 6]	suppression of serum PRL levels [4, 6] [%]	suppression of tumor weight ([4]; 100 mg/kg oral gavage twice a day for 2 weeks after capsule extraction) [%]	pituitary tumor growth induced by estrogen ([4]; oral treatment for 2 weeks)	intracellular PRL levels ([5]; Western blotting)	attenuation of Her1/EGFR and Her2/Neu signaling (HER2 and MAPK autophosphorylation) ([5]; pretreated 0.1-10 μM 45 min, EGF 5 nM 10 min)	suppression of cell number, HER2 overexpressing vs pcDNA3 transfectants ([1]; pcDNA3 and HER2CA transfectants compared)	suppression of PRL secretion ([2]; 24 h) [%]	suppression of PRL secretion ([2]; 48 h) [%]
COc1cc2ncnc(Nc3ccc(F)c(Cl)c3)c2cc1OCCCN1CCOCC1 [gefitinib]	decreased in a dose-dependent manner	suppressed PRL secretion only at 24 h	dose-dependently induced cleaved caspase3									
CS(=O)(=O)CCNCc1ccc(-c2ccc3ncnc(Nc4ccc(OCc5cccc(F)c5)c(Cl)c4)c3c2)o1 [lapatinib, Lapatinib]	decreased in a dose-dependent manner		dose-dependently induced cleaved caspase3; also recorded: induced cleaved-caspase 3	not altered	~35	~35	attenuated	decreased	attenuated EGF-induced HER2 and MAPK autophosphorylation more markedly than gefitinib; also recorded: blocked	enhanced in HER2 overexpressing transfectants	40	40
